Earlier results on one compound are cited in US9161929B2, “Solvent cast film sustained release latanoprost implant” (ALLERGAN, INC., priority 2011, dated 2015).

Turning to `CC(C)OC(=O)CCC/C=C\C[C@@H]1[C@@H](CC[C@@H](O)CCc2ccccc2)[C@H](O)C[C@@H]1O` [Latanoprost], the “solubility in acetone, ethanol, ethyl acetate, isopropanol, methanol and octanol” value is reported as “freely soluble”.
